Results: patent US20050192339A1, “Compounds” (priority 2003, published 2005)
Where a name gives a salt, the structure may show the parent alone.

What was measured:
human MCH1R receptor [1] = target: T1, human MCH1R receptor (Homo sapiens, UniProt Q99705); assay: MCH1R receptor binding by SPA ([125I]-MCH displacement, CHO-K1 hMCH1R membranes); conditions: 0.2 nM [125I]-MCH, membranes of CHO-K1 cells expressing hMCH1 receptor, room temperature; Ki calculated from IC50 (Cheng-Prusoff)
T1 construct: host or cells: CHO-K1
Procedure: The compounds according to the invention were evaluated for their binding to the human MCH1R receptor by the following method:
Compounds: MCH peptide was purchased from Phoenix pharmaceuticals. (Phe^13, [^125I]Tyr^19 Melanine-Concentrating Hormone (human, mouse, rat) ([^125I]-MCH) was obtained from NEN life Science Products. Inc. Boston, Mass. Wheat germ agglutinine SPA beads (RPNQ 0001) were obtained from Amersham-Pharmacia Biotech. All other reagents used are of highest purity from different resources available. Protein Kits, Micro BCA™ Protein Assay Reagent Kit (Cat No. 23235) were purchased from Piece, Rockford, Ill., USA.
CHO-K1 cells expressing hMCH1 receptor were purchased from Euroscreen. CHO-K1 hMCHRI (Euroscreen, Brussels, Belgium, # ES-370-C) were cultivated in Nutrient mixture Ham's F-12 with Glutamax I (Gibco-BRL #31765-027) supplemented with 10% heat-inactivated foetal calf serum (FCS, Gibco-BRL #10108-165) and 400 μg/ml geniticin (Gibco-BRL #1140-0359). The cells were sub-cultivated twice weekly with split ratio=1:20-1:30. For membrane preparation the cells were cultured in […] and the cells were harvested when 90% confluent.
When the cells reached more than 90% confluence, dishes (500 cm^2) were rinsed twice with 20 ml PBS (Ca^2+ and Mg^2+ free). Buffer A, which contains Tris.HCl (15), MgCl2.6H2O (2), EDTA (0.3), EGTA (1) in mM with pH 7.5, 25 ml was added and cells were suspended using a window scraper. The cells were collected in 50 ml Falcon tube pre-cooled on ice and then centrifuged for 3 minutes at 1500 g at 4° C. […]
The radio labeled [^125I]-MCH was diluted with cold MCH in ratio 1:3. […] The results were calculated using Excel program and the curves were drawn using a program GraphPad Prism.
For screening of the substances the amount of the beads used was 0.25 mg/well and the amount of the membrane protein was 4 μg/well 0.2 nM of labeled MCH was used. […] The samples were counted using Microbeta counter (Wallac Trilux 1450 Micro beta counter, Wallac, Finland) for 2 minutes and the results were calculated by using the computer program Activity Base. […]

human MCH1R receptor [2] = target: T1, human MCH1R receptor; conditions: from Hervieu et al., Eur J Neurosci 2000; read-out: Kd of MCH binding reported in literature; cited from earlier work

T1 sequence (Q99705 whole entry): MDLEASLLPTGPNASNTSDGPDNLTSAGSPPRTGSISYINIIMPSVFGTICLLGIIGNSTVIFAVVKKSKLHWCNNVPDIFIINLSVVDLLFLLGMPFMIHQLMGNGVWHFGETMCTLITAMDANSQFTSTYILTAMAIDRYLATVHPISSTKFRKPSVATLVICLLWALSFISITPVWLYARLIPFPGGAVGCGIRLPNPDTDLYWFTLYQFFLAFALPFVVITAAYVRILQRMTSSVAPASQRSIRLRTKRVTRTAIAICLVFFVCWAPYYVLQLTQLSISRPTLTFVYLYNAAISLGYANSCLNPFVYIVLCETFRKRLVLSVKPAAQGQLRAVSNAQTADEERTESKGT

## COc1ccc([C@@]23CC[C@@H](NC(=S)NCc4ccccc4)C[C@@H]2N(CCCc2ccccc2)CC3)cc1OC (relative stereo) [Example 23, N-benzyl-N′-[(3aS*,6R*,7aS*)-3a-(3,4-dimethoxyphenyl)-1-(3-phenylpropyl)octahydro-1H-indol-6-yl]thiourea]
Human MCH1R receptor [1]
  Ki: 0.043 µM

## C=CCNC(=O)N[C@@H]1CC[C@@]2(c3ccc(OC)c(OC)c3)CCN(C)[C@H]2C1 (relative stereo) [Example 58, N-allyl-N′-[(3aS*,6R*7aS*)-3a-(3,4-dimethoxyphenyl)-1-methyloctahydro-1H-indol-6-yl]urea trifluoroacetate]
Human MCH1R receptor [1]
  Ki: 0.907 µM

## COc1ccc([C@@]23CC[C@@H](NC(=O)NCc4ccc(Br)cc4)C[C@@H]2N(C)CC3)cc1OC (relative stereo) [Example 69, N-(4-bromobenzyl)-N′-[(3aS*,6R*,7aS*)-3a-(3,4-dimethoxyphenyl)-1-methyloctahydro-1H-indol-6-yl]urea trifluoroacetate]
Human MCH1R receptor [1]
  Ki: 0.227 µM

## [^125I]-MCH
Human MCH1R receptor [2]
  Kd: 0.0012 µM
